Reference: ChEMBL document CHEMBL1201862, “PubChem BioAssay data set” (2004)
Active and inactive are the calls of the source.

Experiments:
[1] = molecular target: T1, Photoreceptor-specific nuclear receptor (Homo sapiens, UniProt Q9Y5X4); assay type: functional
[2] = molecular target: Protein disulfide-isomerase A6 (Homo sapiens, UniProt Q15084); assay: reduced insulin turbidity driven by ERp5 (PDIA6) – biochemical, absorbance 650 nm, cherry-picked samples, dose response (AID 720566)
[3] = system: INS1; assay: INS-1E survival protection against cytokine death – cell-based, luminescence, retest, dose response (AID 449756); assay type: functional; conditions: Rattus norvegicus;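 also: cell death triggered by IL-1 beta plus TNF-alpha plus IFN-gamma mixture; protective hits raise ATP signal compared with cytokine alone wells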
[4] = molecular target: Dual specificity protein phosphatase 3 (Homo sapiens, UniProt P51452); assay: VHR1 phosphatase inhibitors, primary screen, biochemical, absorbance, uHTS (AID 1654)
[5] = molecular target: Small ubiquitin-related modifier 2 (Homo sapiens, UniProt P61956); assay: disruption of SUMO2 interaction with SIM peptide – biochemical, fluorescence polarization, uHTS hits, selectivity assay for SUMO1 interaction inhibitor project, dose response (AID 624385); assay type: functional; conditions: read-out: IC50_Mean
[6] = molecular target: 26S proteasome non-ATPase regulatory subunit 14 (Homo sapiens, UniProt O00487); assay: inhibition of proteasome subunit RPN11 – biochemical, fluorescence polarization, uHTS hits, confirmation (AID 602368); assay type: functional
[7] = molecular target: Intestinal-type alkaline phosphatase (Homo sapiens, UniProt P09923); assay: activation of human intestinal alkaline phosphatase – biochemical, dose response (AID 488873); assay type: functional
[8] = molecular target: Keap1/Nrf2 (Homo sapiens, UniProt Q14145); assay: disruptors of Keap1 binding to Nrf2 peptide – biochemical, fluorescence polarization, cherry-picked samples, dose response (AID 588683)
[9] = molecular target: Prothrombin (Bos taurus, UniProt P00735); assay: thrombin protease inhibitors – biochemical, fluorescence polarization, uHTS hits, dose response (AID 602369); assay type: functional
[10] = molecular target: Small ubiquitin-related modifier 1 (Homo sapiens, UniProt P63165); assay: SUMO1 protein interaction blockers, potency – biochemical, fluorescence polarization, uHTS hits, dose response (AID 624382); assay type: functional; conditions: read-out: IC50_Mean
[11] = molecular target: Large T antigen (Simian virus 40, UniProt P03070); assay type: functional, Betapolyomavirus macacae;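 also: Confirmatory-stage PubChem screen for compounds that inhibit SV40 T antigen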
[12] = molecular target: Guanyl-specific ribonuclease T1 (Aspergillus oryzae (strain ATCC 42149 / RIB 40), UniProt P00651); assay: inhibition of ribonuclease T1 activity – biochemical, fluorescence polarization, 1536-well, counter-screen for TPT1 inhibitor project, dose response (AID 2167)
[13] = Luminescence Cell-Based Dose Response HTS to Identify Inhibitors of 5'UTR Stem-Loop Driven Prion Protein mRNA Translation in H4 Neuroglioblastoma Cells. [Related pubchem assays: 1827 (Project Summary), 1813 (Primary HTS)]; assay type: functional
[14] = luciferase reporter signal suppression in cells – H4 neuroglioma cells, luminescence, dose response (AID 1990); assay type: functional, cell-based
[15] = molecular target: T2, Streptokinase A (Streptococcus pyogenes serotype M1, UniProt P10520); assay: viability-normalized secreted streptokinase activity reduction – plasminogen activation absorbance, OD405, dose response (AID 1914); assay type: functional, Streptococcus pyogenes M1 GAS;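 also: secreted streptokinase activity via plasminogen activation per viability signal from cell pellet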
T2 sequence (P10520 whole entry): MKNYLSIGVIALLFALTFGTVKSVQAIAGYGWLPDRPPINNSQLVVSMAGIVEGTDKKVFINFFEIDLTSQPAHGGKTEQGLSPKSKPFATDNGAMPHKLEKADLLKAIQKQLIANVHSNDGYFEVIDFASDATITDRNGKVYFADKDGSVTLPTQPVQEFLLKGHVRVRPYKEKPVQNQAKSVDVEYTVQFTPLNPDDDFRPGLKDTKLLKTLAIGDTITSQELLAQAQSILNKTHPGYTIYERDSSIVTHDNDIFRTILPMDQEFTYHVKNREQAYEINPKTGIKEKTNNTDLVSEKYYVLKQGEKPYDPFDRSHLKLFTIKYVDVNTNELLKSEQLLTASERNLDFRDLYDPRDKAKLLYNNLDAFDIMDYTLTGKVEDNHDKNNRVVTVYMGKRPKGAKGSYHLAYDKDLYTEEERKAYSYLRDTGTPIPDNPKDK

[16] = molecular target: T1, Photoreceptor-specific nuclear receptor; assay type: functional, cell-based
[17] = molecular target: Ras and Rab interactor 1/Tyrosine-protein kinase ABL1 (Homo sapiens, UniProt P00519+Q13671); assay type: functional;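 also: biochemical TR-FRET dose-response test measuring inhibition of binding between Rin1 and Abl proteins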
[18] = molecular target: Serine/threonine-protein phosphatase (Homo sapiens, UniProt Q9BPW0); assay: inhibition of protein phosphatase 5 activity – biochemical, fluorescence, dose response (AID 2395)
[19] = molecular target: T3, Sentrin-specific protease 8 (Homo sapiens, UniProt Q96LD8); assay type: functional
T3 sequence (Q96LD8 whole entry): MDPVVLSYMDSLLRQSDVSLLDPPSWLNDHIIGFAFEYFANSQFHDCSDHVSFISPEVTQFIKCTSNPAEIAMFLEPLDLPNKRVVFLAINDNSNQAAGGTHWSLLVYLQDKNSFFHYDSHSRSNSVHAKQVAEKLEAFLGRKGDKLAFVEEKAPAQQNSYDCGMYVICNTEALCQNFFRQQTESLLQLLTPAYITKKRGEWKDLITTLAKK

[20] = molecular target: T4, Tyrosine-protein phosphatase non-receptor type 7 (Homo sapiens, UniProt P35236); assay type: functional
T4 sequence (P35236 whole entry): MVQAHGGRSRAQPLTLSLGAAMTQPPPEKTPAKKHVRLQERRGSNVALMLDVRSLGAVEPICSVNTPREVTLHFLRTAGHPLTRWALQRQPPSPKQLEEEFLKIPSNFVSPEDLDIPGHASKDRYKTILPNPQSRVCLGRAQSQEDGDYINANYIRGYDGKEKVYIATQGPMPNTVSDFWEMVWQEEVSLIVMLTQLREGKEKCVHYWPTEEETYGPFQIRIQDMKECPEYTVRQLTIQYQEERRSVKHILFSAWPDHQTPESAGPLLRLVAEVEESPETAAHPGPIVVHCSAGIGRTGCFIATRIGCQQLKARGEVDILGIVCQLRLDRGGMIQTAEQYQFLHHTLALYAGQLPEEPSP

T1 sequence (Q9Y5X4 whole entry): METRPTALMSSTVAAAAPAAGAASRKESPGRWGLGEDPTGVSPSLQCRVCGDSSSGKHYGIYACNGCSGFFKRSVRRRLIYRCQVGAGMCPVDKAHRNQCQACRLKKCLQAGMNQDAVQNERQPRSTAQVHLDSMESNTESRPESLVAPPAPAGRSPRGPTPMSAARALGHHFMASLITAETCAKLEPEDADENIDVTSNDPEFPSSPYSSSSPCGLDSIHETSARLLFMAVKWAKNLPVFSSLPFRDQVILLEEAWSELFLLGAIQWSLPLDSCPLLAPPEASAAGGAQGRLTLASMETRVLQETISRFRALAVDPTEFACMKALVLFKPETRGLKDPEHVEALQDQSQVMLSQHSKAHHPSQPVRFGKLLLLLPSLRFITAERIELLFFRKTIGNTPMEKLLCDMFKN
Intestinal-type alkaline phosphatase, sequence (P09923 whole entry): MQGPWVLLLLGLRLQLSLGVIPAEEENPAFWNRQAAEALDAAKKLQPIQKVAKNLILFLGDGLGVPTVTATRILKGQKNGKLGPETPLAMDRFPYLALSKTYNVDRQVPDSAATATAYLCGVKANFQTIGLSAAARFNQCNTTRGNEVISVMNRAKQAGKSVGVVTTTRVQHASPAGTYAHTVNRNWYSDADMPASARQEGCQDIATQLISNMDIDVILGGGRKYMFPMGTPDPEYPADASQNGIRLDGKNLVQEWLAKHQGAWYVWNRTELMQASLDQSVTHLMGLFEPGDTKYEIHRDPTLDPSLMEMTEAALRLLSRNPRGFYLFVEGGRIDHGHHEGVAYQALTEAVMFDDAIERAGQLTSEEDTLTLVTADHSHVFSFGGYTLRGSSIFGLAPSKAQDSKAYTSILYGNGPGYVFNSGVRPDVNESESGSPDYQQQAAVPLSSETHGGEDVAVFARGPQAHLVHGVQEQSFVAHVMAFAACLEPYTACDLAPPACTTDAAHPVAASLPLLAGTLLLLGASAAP
Serine/threonine-protein phosphatase, sequence (Q9BPW0 whole entry): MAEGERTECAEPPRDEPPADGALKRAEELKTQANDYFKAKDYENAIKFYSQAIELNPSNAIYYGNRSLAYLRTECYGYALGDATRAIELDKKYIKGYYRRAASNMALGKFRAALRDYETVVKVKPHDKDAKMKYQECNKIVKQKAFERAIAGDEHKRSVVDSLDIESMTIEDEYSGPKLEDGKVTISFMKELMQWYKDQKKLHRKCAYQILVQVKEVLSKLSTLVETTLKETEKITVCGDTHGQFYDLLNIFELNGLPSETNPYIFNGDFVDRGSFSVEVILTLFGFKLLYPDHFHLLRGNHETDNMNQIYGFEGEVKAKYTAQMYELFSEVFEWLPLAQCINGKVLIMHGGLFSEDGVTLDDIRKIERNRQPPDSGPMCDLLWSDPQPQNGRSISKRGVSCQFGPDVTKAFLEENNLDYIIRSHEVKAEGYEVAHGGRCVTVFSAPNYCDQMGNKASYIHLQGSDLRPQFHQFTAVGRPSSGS
Keap1/Nrf2, sequence (Q16236 whole entry): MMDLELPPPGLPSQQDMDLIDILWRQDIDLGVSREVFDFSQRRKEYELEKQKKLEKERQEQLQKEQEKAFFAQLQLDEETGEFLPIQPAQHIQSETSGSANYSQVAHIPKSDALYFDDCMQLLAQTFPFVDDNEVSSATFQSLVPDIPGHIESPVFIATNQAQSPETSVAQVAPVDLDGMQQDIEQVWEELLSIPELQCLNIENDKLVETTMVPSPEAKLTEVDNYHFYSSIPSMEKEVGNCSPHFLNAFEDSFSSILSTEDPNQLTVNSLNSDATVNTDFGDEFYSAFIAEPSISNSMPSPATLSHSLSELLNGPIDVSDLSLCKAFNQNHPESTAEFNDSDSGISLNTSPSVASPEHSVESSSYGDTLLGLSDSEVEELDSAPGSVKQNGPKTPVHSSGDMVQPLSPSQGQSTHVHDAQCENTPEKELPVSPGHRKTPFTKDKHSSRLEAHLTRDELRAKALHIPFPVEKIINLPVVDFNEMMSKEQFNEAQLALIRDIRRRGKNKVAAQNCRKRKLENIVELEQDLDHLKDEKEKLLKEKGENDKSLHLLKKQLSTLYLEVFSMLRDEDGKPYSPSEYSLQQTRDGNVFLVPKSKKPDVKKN
Keap1/Nrf2, sequence (Q14145 whole entry): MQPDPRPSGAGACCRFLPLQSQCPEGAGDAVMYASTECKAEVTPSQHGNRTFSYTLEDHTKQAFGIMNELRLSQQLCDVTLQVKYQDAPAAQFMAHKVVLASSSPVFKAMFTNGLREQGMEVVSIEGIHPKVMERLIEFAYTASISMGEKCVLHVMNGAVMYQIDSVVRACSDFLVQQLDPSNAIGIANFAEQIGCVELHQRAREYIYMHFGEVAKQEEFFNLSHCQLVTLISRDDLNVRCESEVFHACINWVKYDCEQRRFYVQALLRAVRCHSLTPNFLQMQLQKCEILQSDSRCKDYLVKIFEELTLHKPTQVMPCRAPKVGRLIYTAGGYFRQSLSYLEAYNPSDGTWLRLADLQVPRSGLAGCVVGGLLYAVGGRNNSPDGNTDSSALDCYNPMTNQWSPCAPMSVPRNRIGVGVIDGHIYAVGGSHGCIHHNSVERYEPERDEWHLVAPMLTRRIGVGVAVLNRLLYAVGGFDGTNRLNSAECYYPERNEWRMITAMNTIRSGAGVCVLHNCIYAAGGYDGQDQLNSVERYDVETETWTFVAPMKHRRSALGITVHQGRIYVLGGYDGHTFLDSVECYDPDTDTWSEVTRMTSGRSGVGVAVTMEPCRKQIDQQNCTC
Small ubiquitin-related modifier 1, sequence (P63165 whole entry): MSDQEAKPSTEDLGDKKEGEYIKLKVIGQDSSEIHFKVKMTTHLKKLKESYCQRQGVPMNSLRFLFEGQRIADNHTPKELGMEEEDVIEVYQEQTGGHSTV
Protein disulfide-isomerase A6, sequence (Q15084 whole entry): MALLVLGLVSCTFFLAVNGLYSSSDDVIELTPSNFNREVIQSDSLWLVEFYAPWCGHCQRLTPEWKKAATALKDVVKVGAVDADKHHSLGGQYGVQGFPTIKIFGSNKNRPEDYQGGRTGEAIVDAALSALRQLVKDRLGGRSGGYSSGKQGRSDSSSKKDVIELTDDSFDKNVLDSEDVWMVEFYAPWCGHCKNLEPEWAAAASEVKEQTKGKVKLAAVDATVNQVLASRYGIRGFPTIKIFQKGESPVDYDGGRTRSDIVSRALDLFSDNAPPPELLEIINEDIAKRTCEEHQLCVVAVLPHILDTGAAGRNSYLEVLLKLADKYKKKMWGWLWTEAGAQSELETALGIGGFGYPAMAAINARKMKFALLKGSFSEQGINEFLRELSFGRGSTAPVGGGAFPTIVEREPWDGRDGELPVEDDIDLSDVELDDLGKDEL
Dual specificity protein phosphatase 3, sequence (P51452 whole entry): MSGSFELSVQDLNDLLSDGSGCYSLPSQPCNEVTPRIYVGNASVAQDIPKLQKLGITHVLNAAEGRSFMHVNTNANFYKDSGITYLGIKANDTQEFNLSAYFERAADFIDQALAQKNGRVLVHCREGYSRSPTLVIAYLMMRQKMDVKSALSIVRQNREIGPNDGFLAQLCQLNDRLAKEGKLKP
26S proteasome non-ATPase regulatory subunit 14, sequence (O00487 whole entry): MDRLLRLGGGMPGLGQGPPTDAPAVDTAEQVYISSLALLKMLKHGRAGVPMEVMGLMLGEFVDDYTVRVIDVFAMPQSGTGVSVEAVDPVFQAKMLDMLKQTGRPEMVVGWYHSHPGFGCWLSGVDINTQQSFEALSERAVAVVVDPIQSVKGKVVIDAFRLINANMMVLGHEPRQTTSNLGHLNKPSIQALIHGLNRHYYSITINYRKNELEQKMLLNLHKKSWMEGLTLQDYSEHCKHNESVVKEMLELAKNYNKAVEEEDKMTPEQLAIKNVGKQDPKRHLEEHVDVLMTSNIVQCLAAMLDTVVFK
Small ubiquitin-related modifier 2, sequence (P61956 whole entry): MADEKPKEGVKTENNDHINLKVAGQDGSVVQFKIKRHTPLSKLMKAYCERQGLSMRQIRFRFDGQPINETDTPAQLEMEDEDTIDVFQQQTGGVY
Guanyl-specific ribonuclease T1, sequence (P00651 whole entry): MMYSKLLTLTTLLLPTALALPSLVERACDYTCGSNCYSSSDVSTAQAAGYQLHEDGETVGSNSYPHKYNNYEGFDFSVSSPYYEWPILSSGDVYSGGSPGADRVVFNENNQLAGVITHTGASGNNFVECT
Large T antigen, sequence (P03070 whole entry): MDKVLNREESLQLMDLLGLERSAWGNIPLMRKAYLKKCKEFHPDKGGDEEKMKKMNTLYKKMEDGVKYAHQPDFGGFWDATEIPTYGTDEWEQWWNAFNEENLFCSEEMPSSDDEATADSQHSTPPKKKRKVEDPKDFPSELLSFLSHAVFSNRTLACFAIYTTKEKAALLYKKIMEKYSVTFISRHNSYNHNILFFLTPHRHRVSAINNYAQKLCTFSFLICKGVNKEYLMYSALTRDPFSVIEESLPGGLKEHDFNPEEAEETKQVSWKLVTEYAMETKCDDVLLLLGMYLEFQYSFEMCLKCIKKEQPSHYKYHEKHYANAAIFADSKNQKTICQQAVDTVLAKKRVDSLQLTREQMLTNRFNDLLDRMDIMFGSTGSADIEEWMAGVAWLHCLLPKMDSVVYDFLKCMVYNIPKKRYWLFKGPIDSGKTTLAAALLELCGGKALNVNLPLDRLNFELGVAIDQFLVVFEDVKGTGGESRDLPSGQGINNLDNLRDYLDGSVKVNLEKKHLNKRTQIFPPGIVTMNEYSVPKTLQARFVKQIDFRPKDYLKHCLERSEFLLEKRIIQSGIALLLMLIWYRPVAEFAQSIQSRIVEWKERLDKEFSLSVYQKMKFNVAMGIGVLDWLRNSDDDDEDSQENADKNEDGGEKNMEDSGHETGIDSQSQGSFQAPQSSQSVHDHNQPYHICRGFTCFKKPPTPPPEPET

COC(=O)c1cc(C)nc2c1C(=O)C(=O)C=C2N1CCOCC1
IC50 [1]: > 39.8 µM (not active)
AC50 [2]: 45.1 µM (active)
AC50 [3]: 2.71 µM (active)

NS(=O)(=O)c1cc(C(=O)NC2CCSc3ccccc32)ccc1Cl (stereo not given)
IC50 [4]: < 1.23 µM (inactive)
IC50 [5]: 6.65 µM (active)
IC50 [6]: 0.763 µM (active)
EC50 [7]: 49.4 µM (active)
AC50 [8]: > 52 µM (inactive)
IC50 [9]: 24.5 µM (active)
IC50 [10]: 4.11 µM (active)
IC50 [11]: 62.1 µM (active)
IC50 [12]: > 55.7 µM (not active)

O=C1c2ccccc2C(=O)c2[nH]c(O)nc21
EC50 [13]: 8.19 µM (active)
EC50 [14]: 5.93 µM (active)
EC50 [15]: 130 µM (active)
IC50 [16]: 4.48 µM (active)

CCOC(=O)C1=C(C)OC2(O)c3ccccc3C(=O)C12O (stereo not given)
IC50 [17]: 11.1 µM (inactive)
IC50 [18]: > 67 µM (not active)
IC50 [19]: 0.428 µM (active)

N#Cc1c(N2CCCC2)nc(N)c2c(N)nc(N3CCCC3)cc12
IC50 [20]: 74.3 µM (active)
